Test results taken from BigSolDB 2.1.

NS(=O)(=O)Cc1noc2ccccc12
solubility (mole fraction)
Conditions	273.15 K	278.15 K	283.15 K	288.15 K	293.15 K	298.15 K	303.15 K	308.15 K	313.15 K
in 1,4-dioxane	–	–	–	0.024	0.0294	0.0354	0.0416	0.0488	0.0563
in 2-butanone	0.0132	0.0154	0.0179	0.0209	0.0244	0.0282	0.0319	0.0358	0.0399
in DMF	0.0192	0.0278	0.0374	0.0469	0.0575	0.0687	0.0812	0.0946	0.108
in acetonitrile	0.00562	0.00691	0.00821	0.00982	0.0114	0.0131	0.0149	0.0171	0.0191
in cyclohexanone	0.00739	0.00898	0.0109	0.0129	0.0155	0.0184	0.0218	0.0262	0.0307
in ethanol	0.00112	0.00135	0.00159	0.00188	0.00221	0.00255	0.0029	0.0033	0.00373
in ethyl acetate	0.00498	0.00558	0.00625	0.00704	0.00793	0.00882	0.0098	0.0108	0.0118
in isopropanol	0.000617	0.000791	0.000996	0.00122	0.00146	0.00173	0.00207	0.00241	0.00274
in methanol	0.00253	0.00274	0.00298	0.00326	0.00353	0.00387	0.00421	0.0046	0.005
in n-butanol	0.00017	0.00026	0.000383	0.000528	0.000721	0.00095	0.00122	0.00148	0.00178
in n-propanol	0.00041	0.000546	0.000697	0.000862	0.00105	0.00126	0.00149	0.00175	0.002
in toluene	3.56e-05	5.05e-05	6.73e-05	8.69e-05	0.000106	0.000131	0.00016	0.000193	0.00023
